Data reported in US8796297B2, “4-substituted-2-amino-pyrimidine derivatives” (AbbVie Inc., priority 2009, dated 2014).

Columns and labels:
[1] = biological target: T1, human histamine H3 receptor (Homo sapiens (Human), UniProt Q9Y5N1); test: FLIPR functional assay (Ca2+, HEK-293 cells coexpressing Gαqi5), human H3 receptor; type: cell-based; conditions: for EC50: FLIPR agonist potency; for Emax: HEK293, read-out: Human Maximum (%)
From the text: (§1) There are many methods available to show the effectiveness of compounds as histamine H3 receptor ligands. Histamine H3 receptors from mammalian species have been cloned. Methods to clone, express, and assess the potency and functional activity of such cloned genes are well known to those skilled in the art of molecular biology. […] In the present case, to determine the potency and effectiveness of representative compounds of this invention as histamine-H3 receptor ligands (H3 receptor ligands), the following tests were conducted according to previously described methods (see Esbenshade, et al., Journal of Pharmacology and Experimental Therapeutics 2003, 305, 887-896, Esbenshade, et al., Biochemical Pharmacology 2004, 68, 933-945, and in Krueger, et al., Journal of Pharmacology and Experimental Therapeutics 2005, 314, 271-281): histamine H3 receptors were cloned and stably expressed in HEK-293 (human embryonic kidney) cells coexpressing a Gαqi5. Before testing, cells were loaded with a Ca^+2 sensitive fluorescent dye, in this case Fluo-4. For partial agonist or full agonist ligands, addition of compound to the cells led to an increase in intracellular Ca^+2 which was detected by FLIPR (Fluorescence Imaging Plate Reader; Molecular Devices, Sunnyvale, Calif.) technology. The fluorescence intensities measured before addition of the test compound were subtracted from the fluorescence intensities at later time points. Peak response values determined at each concentration of ligand were expressed as a percentage of the response obtained with a maximal concentration (1 μM) of the full agonist R-α-methyl-histamine (RAMH). Concentration versus response data were analyzed to obtain compound potency as EC50 values for full and partial agonists.

[2] = biological target: T2, rat histamine H3 receptor (Rattus norvegicus (Rat), UniProt Q9QYN8); test: FLIPR functional assay (Ca2+, HEK-293 cells coexpressing Gαqi5), rat H3 receptor; type: cell-based; conditions: for Rat Maximum (%): FLIPR, percentage of the response to 1 μM RAMH; for EC50: FLIPR agonist potency
T2 sequence (Q9QYN8 whole entry): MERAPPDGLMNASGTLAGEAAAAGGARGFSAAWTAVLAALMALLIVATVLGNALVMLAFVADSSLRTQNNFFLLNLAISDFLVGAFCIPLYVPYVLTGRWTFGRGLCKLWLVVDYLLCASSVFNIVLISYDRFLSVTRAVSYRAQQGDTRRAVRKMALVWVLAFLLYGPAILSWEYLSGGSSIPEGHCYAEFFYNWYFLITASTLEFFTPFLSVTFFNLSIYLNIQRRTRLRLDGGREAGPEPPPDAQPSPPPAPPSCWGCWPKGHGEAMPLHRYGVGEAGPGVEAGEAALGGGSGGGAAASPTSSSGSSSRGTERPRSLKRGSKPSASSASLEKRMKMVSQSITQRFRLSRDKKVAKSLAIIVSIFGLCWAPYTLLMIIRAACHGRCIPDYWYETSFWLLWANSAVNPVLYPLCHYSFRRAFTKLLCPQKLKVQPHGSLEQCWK
From the text: as §1

[3] = biological target: T1, human histamine H3 receptor; test: Radioligand competition binding assay, human H3 receptor; conditions: [3H]-N-α-methylhistamine competition binding
[4] = biological target: T2, rat histamine H3 receptor; test: Radioligand competition binding assay, rat H3 receptor; conditions: [3H]-N-α-methylhistamine competition binding
Description: To determine the effectiveness of representative compounds of this invention as histamine-3 receptor ligands (H3 receptor ligands), the following tests were conducted according to previously described methods (see European Journal of Pharmacology 1990, 188, 219-227; Journal of Pharmacology and Experimental Therapeutics 1995, 275, 598-604; Journal of Pharmacology and Experimental Therapeutics 1996, 276, 1009-1015; and Biochemical Pharmacology 1973, 22, 3099-3108).
The rat H3 receptor was cloned and expressed in cells, and competition binding assays carried out, according to methods previously described (see Esbenshade, et al. Journal of Pharmacology and Experimental Therapeutics 2005, 313, 165-175; Esbenshade et al., Biochemical Pharmacology 2004, 68, 933-945; and Krueger, et al. Journal of Pharmacology and Experimental Therapeutics 2005, 314, 271-281). Membranes were prepared from C6 or HEK293 cells, expressing the rat histamine H3 receptor, by homogenization on ice in TE buffer (50 mM Tris-HCl buffer, pH 7.4, containing 5 mM EDTA), 1 mM benzamidine, 2 μg/ml aprotinin, 1 μg/ml leupeptin, and 1 μg/ml pepstatin. The homogenate was centrifuged at 40,000 g for 20 minutes at 4° C. This step was repeated, and the resulting pellet was resuspended in TE buffer. Aliquots were frozen at −70° C. until needed. On the day of assay, membranes were thawed and diluted with TE buffer.
Membrane preparations were incubated with [^3H]-N-α-methylhistamine (0.5-1.0 nM) in the presence or absence of increasing concentrations of ligands for H3 receptor competition binding. The binding incubations were conducted in a final volume of 0.5 ml TE buffer at 25° C. and were terminated after 30 minutes. Thioperamide (30 μM) was used to define non-specific binding. All binding reactions were terminated by filtration under vacuum onto polyethylenimine (0.3%) presoaked Unifilters (Perkin Elmer Life Sciences) or Whatman GF/B filters followed by three brief washes with 2 ml of ice-cold TE buffer. Bound radiolabel was determined by liquid scintillation counting. For all of the radioligand competition binding assays, IC50 values and Hill slopes were determined by Hill transformation of the data and pKi values were determined by the Cheng-Prusoff equation.

[5] = biological target: human H3R (Homo sapiens (Human), UniProt Q9Y5N1); test: GTPγS functional assay, membranes from HEK cells expressing the human H3R; type: biochemical; conditions: for EC50: GTPγS agonist potency
Chain of human H3R (Q9Y5N1 whole entry): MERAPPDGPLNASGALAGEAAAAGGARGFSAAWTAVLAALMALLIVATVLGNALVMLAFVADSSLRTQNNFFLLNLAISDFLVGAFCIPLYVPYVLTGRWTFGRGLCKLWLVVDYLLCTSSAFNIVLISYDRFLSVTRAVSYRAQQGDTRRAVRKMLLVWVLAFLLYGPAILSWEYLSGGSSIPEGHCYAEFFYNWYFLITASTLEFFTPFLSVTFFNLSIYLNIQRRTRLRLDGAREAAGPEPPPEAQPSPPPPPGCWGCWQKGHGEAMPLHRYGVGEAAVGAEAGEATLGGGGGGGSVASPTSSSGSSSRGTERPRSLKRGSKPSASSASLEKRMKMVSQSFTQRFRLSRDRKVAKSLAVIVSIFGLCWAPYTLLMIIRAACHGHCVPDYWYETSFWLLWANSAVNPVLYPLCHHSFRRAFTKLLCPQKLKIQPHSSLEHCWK
Description: (§2) Membranes from HEK cells expressing the human H3R, or from C6 cells expressing the rat H3R, were prepared by homogenization in cold buffer containing 50 mM Tris-HCl (pH 7.4), 5 mM EDTA, 10 mM MgCl2, 1 mM benzamidine, 2 μg/ml aprotinin, 1 μg/ml leupeptin, and 1 μg/ml pepstatin. The homogenate was centrifuged at 40,000 g for 20 min at 4° C., and the resulting pellet was resuspended in 50 mM Tris-HCl (pH 7.4), 5 mM EDTA, and 10 mM MgCl2 and homogenized. Glycerol and bovine serum albumin were added to a final concentration of 10% glycerol and 1% bovine serum albumin. Membranes were diluted in GTPγS assay buffer (25 mM HEPES, 2.5 mM MgCl2, and 75 mM NaCl, pH 7.4) and 10 μg of membrane protein was incubated in a 96-well deep-well block in the presence of 5.0 μM unlabeled GDP, approximately 0.5 nM of [^35S]GTPγS, and increasing concentrations of test compounds. Samples were incubated at 37° C. for 5 min and the assays were terminated by the addition of cold buffer (50 mM Tris-HCl, 75 mM NaCl, and 2.5 mM MgCl2, pH 7.6) and subsequent harvesting onto a Packard Unifilter 96-well GF/B plate followed by extensive washing. Microscint 20 (PerkinElmer Life Sciences) was added to the samples, and bound [^35S]GTPγS was determined using the Topcount (Perkin Elmer Life Sciences). The percentage of [^35S]GTPγS bound in each sample was calculated as a percentage of that bound to control samples incubated in the absence of the H3R agonists (basal). Data were analyzed from experiments performed in triplicate using GraphPad Prism to obtain pEC50 values, Hill slopes, and maximal % response.

[6] = biological target: rat H3R (Rattus norvegicus (Rat), UniProt Q9QYN8); test: GTPγS functional assay, membranes from C6 cells expressing the rat H3R; type: biochemical; conditions: for EC50: GTPγS agonist potency
Chain of rat H3R (Q9QYN8 whole entry): as the sequence (Q9QYN8 whole entry) above
Description: as §2

[7] = system: acetic acid-induced writhing; test: Acetic acid-induced writhing in mice; type: in vivo; conditions: subcutaneous dose of 300 mg/kg, 30 minutes prior to 0.9% acetic acid ip
Description: Intraperitoneal injection of 0.9% acetic acid induces a writhing response that is quantified by counting the number of these induced characteristic lengthwise abdominal constrictions with torso elongations in a fixed time period (Langford, D. J.; et al. Science 2006, 312, 1967-1970). Reduction of the number of writhes by a compound administered 30 minutes prior to acetic acid exposure is a measure of analgesic activity.

[8] = biological target: H3 receptor (Mus musculus (Mouse), UniProt P58406); test: Mouse dipsogenia model (water intake); type: in vivo, CD-1 mouse
Chain of H3 receptor (P58406 whole entry): as the sequence (Q9QYN8 whole entry) above, with T15A, A286T, A290G, R387H, I389V counted along it
Description: Intraperitoneal administration of an H3 receptor agonist such as R-alpha-methyl-histamine elicits drinking in the hydrated CD-1 mouse (Fox, G. B.; et al. Pharmacology Biochemistry and Behavior 2002, 72, 741-750). This dipsogenic response is an indication of agonist activity in vivo and can be monitored by measuring the water intake of drug-treated animals in a 30 minute period.

[9] = FLIPR, percentage of the response to 1 μM RAMH
[10] = [35S]GTPγS bound as percentage of basal

T1 sequence (Q9Y5N1 whole entry): as the sequence (Q9Y5N1 whole entry) above

Row | EC50 [1] | Emax [1, 9] | Rat Maximum (%) [2] | Ki [3] | Emax ([5]; 5 min, [35S]GTPγS bound as percentage of basal, read-out: Human Maximum (%)) | Emax ([6]; 5 min, [35S]GTPγS bound as percentage of basal, read-out: Rat Maximum (%)) | effect on dipsogenic response to Example 1 ([8]; ciproxifan 3 μmol/kg, ip against Example 1 240 μmol/kg) | Compound | Ki [4] | EC50 [5] | EC50 [6] | EC50 [2] | Human Maximum (%) [1, 9] | Human Maximum (%) [5, 10] | number of writhes [7] | Rat Maximum (%) [6, 10] | water intake (dipsogenic response) ([8]; dose dependently at 80, 160, and 240 μmol/kg, ip, 30 minute period, hydrated CD-1 mouse)
1 | 17700 nM | 34.2% | 74.0% | > 363 nM |  |  |  | Nc1nccc(N[C@H]2CC[C@H](N)CC2)n1 [Example 16, Trans-N^4-(4-aminocyclohexyl)pyrimidine-2,4-diamine] |  |  |  |  |  |  |  |  | 
2 | 254 nM | 41% | 83.0% | 302 nM | 122% | 123% |  | Cl.Cl.Nc1nccc(N2CCC(N)CC2)n1 [Example 20, 4-(4-aminopiperidin-1-yl)pyrimidin-2-amine dihydrochloride] | 58.9 nM | 1050 nM | 724 nM | 51.7 nM |  |  |  |  | 
3 |  |  |  |  |  |  | blocked | O=C(c1ccc(OCCCc2cnc[nH]2)cc1)C1CC1 [ciproxifan, reference compound] |  |  |  |  |  |  |  |  | 

Row | Compound | EC50 [1] | Emax [1, 9] | Rat Maximum (%) [2] | Ki [3] | Emax ([5]; 5 min, [35S]GTPγS bound as percentage of basal, read-out: Human Maximum (%)) | Emax ([6]; 5 min, [35S]GTPγS bound as percentage of basal, read-out: Rat Maximum (%)) | effect on dipsogenic response to Example 1 ([8]; ciproxifan 3 μmol/kg, ip against Example 1 240 μmol/kg) | Ki [4] | EC50 [5] | EC50 [6] | EC50 [2] | Human Maximum (%) [1, 9] | Human Maximum (%) [5, 10] | number of writhes [7] | Rat Maximum (%) [6, 10] | water intake (dipsogenic response) ([8]; dose dependently at 80, 160, and 240 μmol/kg, ip, 30 minute period, hydrated CD-1 mouse)
4 | NCCNc1ccnc(N)n1.O=C(O)C(O)C(O)C(=O)O [Example 1, N^4-(2-aminoethyl)pyrimidine-2,4-diamine(2R,3R)-2,3-dihydroxysuccinate] | 124 nM |  | 100.0% | 63.1 nM |  |  |  | 5.5 nM | 513 nM | 174 nM | 5.47 nM | 60.2% | 147% | significantly reduced | 181% | induced water intake
